Values after ≈ are worked out from the molar mass of the structure shown. Values joined by “and” are separate entries in the source; they are usually repeats but may differ in a detail not shown here. Identical values can stand only once.
Key:
[1] = aqueous formulation; cited from earlier work
[2] = Laboratory test on the volatility of 3-methylpyrazole, storage in open crystallising dishes at room temperature; format: physicochemical; conditions: open crystallising dish diameter 5 cm
[3] = Simulated open storage test of treated urea granules, TZ/3-MP content determined analytically; format: physicochemical; conditions: storage period 6 weeks, 9 kg in open-topped vessels, ambient temperature and humidity; listed as pure 3-methylpyrazole sprayed on
Procedure: The urea granules enclosed in the cement mixer according to Example 8 were stored in a quantity of 9 kg to simulate storage in a pile in open-topped cylindrical vessels (height 30 cm, diameter 30 cm) at ambient temperature and humidity. After a storage period of 2, 4 and 6 weeks average samples were taken and the nitrification inhibitor TZ/3-MP content was determined analytically.
Enclosed urea granules according to Example 9 were stored in the same way in parallel, and average samples taken from these were investigated analytically.

Compound	solubility [1]	loss in % ([2]; storage time 1 day)	loss in % ([2]; storage time 2 days)	loss in % ([2]; storage time 3 days)	loss in % ([2]; storage time 6 days)	loss in % ([2]; storage time 12 days)	Active substance losses in relation to the starting value, MP (%) [3]
N#CN=C(N)N [dicyandiamide, Dicyandiamide]	32 mg/mL (≈ 381 mM)	–	–	–	–	–	–
c1nc[nH]n1 [TZ, 1,2,4-triazole]	–	0%	0%	1%	2%	2%	–
Cc1cc[nH]n1 [Example 3-MP, 3-methylpyrazole]	–	12%	26%	40%	87%	100%	89 ^1% and 89%

From patent US8986419B2, “Mixture for treating fertilizers” (SKW Stickstoffwerke Piesteritz GmbH, priority 2010, dated 2015)
